Measured values from ChEMBL document CHEMBL1201862, “PubChem BioAssay data set” (2004).
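Exposure lasted 48 hours, with cells grown in 96-well plates and compounds tested at five concentrations. GI50 marks 50% less growth.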 The source made the active and inactive calls. Rule as the data show it: active = GI50 up to about 1.1 µM and inactive = higher.

What was measured:
Test in all cases: NCI anticancer screen, dose series, 48 h
HCT-116 = system: HCT-116
NCI/ADR-RES = system: NCI/ADR-RES
A498 = system: A498
Hs-578T = system: Hs-578T
RXF 393 = system: RXF 393
COLO 205 = system: COLO 205
NCI-H226 = system: NCI-H226
Malme-3M = system: Malme-3M
CCRF-CEM = system: CCRF-CEM
SW-620 = system: SW-620
MDA-MB-435 = system: MDA-MB-435
NCI-H23 = system: NCI-H23
RPMI-8226 = system: RPMI-8226
UACC-62 = system: UACC-62
LOX IMVI = system: LOX IMVI
OVCAR-3 = system: OVCAR-3
UO-31 = system: UO-31
U-251 = system: U-251
OVCAR-5 = system: OVCAR-5
HOP-62 = system: HOP-62
CAKI-1 = system: CAKI-1
OVCAR-8 = system: OVCAR-8
MOLT-4 = system: MOLT-4
A549 = system: A549
HL-60 = system: HL-60
SK-MEL-5 = system: SK-MEL-5
DU-145 = system: DU-145
SF-539 = system: SF-539
786-0 = system: 786-0
NCI-H460 = system: NCI-H460
EKVX = system: EKVX
HT-29 = system: HT-29
BT-549 = system: BT-549
T47D = system: T47D
M14 = system: M14
SNB-75 = system: SNB-75
HCC 2998 = system: HCC 2998
MCF7 = system: MCF7
MDA-N = system: MDA-N
MDA-MB-231 = system: MDA-MB-231
TK-10 = system: TK-10
PC-3 = system: PC-3
SN12C = system: SN12C
OVCAR-4 = system: OVCAR-4
SF-268 = system: SF-268
SF-295 = system: SF-295
K562 = system: K562
UACC-257 = system: UACC-257
KM12 = system: KM12
SK-OV-3 = system: SK-OV-3
SK-MEL-28 = system: SK-MEL-28
IGROV-1 = system: IGROV-1
HOP-92 = system: HOP-92
SK-MEL-2 = system: SK-MEL-2
SR = system: SR
HCT-15 = system: HCT-15
SNB-19 = system: SNB-19
ACHN = system: ACHN
NCI-H522 = system: NCI-H522
DMS-273 = system: DMS-273
KM-20L2 = system: KM-20L2
SNB-78 = system: SNB-78
DMS-114 = system: DMS-114
LXFL 529 = system: LXFL 529
M19-MEL = system: M19-MEL
DLD-1 = system: DLD-1

Cc1cc(O)c(-c2cc(O)c(C)cc2O)cc1O
GI50 (HCT-116): 5.55 µM (inactive)
GI50 (NCI/ADR-RES): 26.4 µM (inactive)
GI50 (A498): 21 µM (inactive)
GI50 (Hs-578T): 25.9 µM (inactive)
GI50 (RXF 393): 2.38 µM (inactive)
GI50 (COLO 205): 7.16 µM (inactive)
GI50 (NCI-H226): 18.7 µM (inactive)
GI50 (Malme-3M): 11.1 µM (inactive)
GI50 (CCRF-CEM): 1.08 µM (active)
GI50 (SW-620): 2.34 µM (inactive)
GI50 (MDA-MB-435): 3.05 µM (inactive)
GI50 (NCI-H23): 10.5 µM (inactive)
GI50 (RPMI-8226): 1.66 µM (inactive)
GI50 (UACC-62): 15.6 µM (inactive)
GI50 (LOX IMVI): 5.66 µM (inactive)
GI50 (OVCAR-3): 2.14 µM (inactive)
GI50 (UO-31): 1.92 µM (inactive)
GI50 (U-251): 15 µM (inactive)
GI50 (OVCAR-5): 16.6 µM (inactive)
GI50 (HOP-62): 16.7 µM (inactive)
GI50 (CAKI-1): 6.07 µM (inactive)
GI50 (OVCAR-8): 3.24 µM (inactive)
GI50 (MOLT-4): 2.06 µM (inactive)
GI50 (A549): 17.8 µM (inactive)
GI50 (HL-60): 1.71 µM (inactive)
GI50 (SK-MEL-5): 14.4 µM (inactive)
GI50 (DU-145): 14.9 µM (inactive)
GI50 (SF-539): 3.02 µM (inactive)
GI50 (786-0): 2.94 µM (inactive)
GI50 (NCI-H460): 18.7 µM (inactive)
GI50 (EKVX): 8.99 µM (inactive)
GI50 (HT-29): 17.1 µM (inactive)
GI50 (BT-549): 12.2 µM (inactive)
GI50 (T47D): 2.43 µM (inactive)
GI50 (M14): 7.67 µM (inactive)
GI50 (SNB-75): 14.9 µM (inactive)
GI50 (HCC 2998): 14.1 µM (inactive)
GI50 (MCF7): 10 µM (inactive)
GI50 (MDA-N): 8.34 µM (inactive)
GI50 (MDA-MB-231): 14.2 µM (inactive)
GI50 (TK-10): 5.93 µM (inactive)
GI50 (PC-3): 11.6 µM (inactive)
GI50 (SN12C): 6.25 µM (inactive)
GI50 (OVCAR-4): 5.5 µM (inactive)
GI50 (SF-268): 19.1 µM (inactive)
GI50 (SF-295): 16.7 µM (inactive)
GI50 (K562): 1.86 µM (inactive)
GI50 (UACC-257): 7 µM (inactive)
GI50 (KM12): 12.6 µM (inactive)
GI50 (SK-OV-3): 16.8 µM (inactive)
GI50 (SK-MEL-28): 9.23 µM (inactive)
GI50 (IGROV-1): 11.5 µM (inactive)
GI50 (HOP-92): 2.25 µM (inactive)
GI50 (SK-MEL-2): 17.2 µM (inactive)
GI50 (SR): 0.977 µM (active)
GI50 (HCT-15): 7.67 µM
GI50 (SNB-19): 18.9 µM (inactive)
GI50 (ACHN): 3.94 µM (inactive)
GI50 (NCI-H522): 4.04 µM (inactive)

Cc1c(-c2coc(-c3ccc([N+](=O)[O-])cc3)n2)c(=O)n(-c2ccccc2)n1C
GI50 (HCT-116): > 100 µM (inactive)
GI50 (A498): > 100 µM (inactive)
GI50 (COLO 205): > 100 µM (inactive)
GI50 (NCI-H226): > 100 µM (inactive)
GI50 (Malme-3M): > 100 µM (inactive)
GI50 (DMS-273): > 100 µM (inactive)
GI50 (CCRF-CEM): > 100 µM (inactive)
GI50 (NCI-H23): > 100 µM (inactive)
GI50 (RPMI-8226): > 100 µM (inactive)
GI50 (UACC-62): > 100 µM (inactive)
GI50 (LOX IMVI): > 100 µM (inactive)
GI50 (OVCAR-3): > 100 µM (inactive)
GI50 (UO-31): > 100 µM (inactive)
GI50 (KM-20L2): > 100 µM (inactive)
GI50 (U-251): > 100 µM (inactive)
GI50 (OVCAR-5): > 100 µM (inactive)
GI50 (HOP-62): > 100 µM (inactive)
GI50 (SNB-78): > 100 µM (inactive)
GI50 (OVCAR-8): > 100 µM (inactive)
GI50 (MOLT-4): > 100 µM (inactive)
GI50 (A549): > 100 µM (inactive)
GI50 (HL-60): > 100 µM (inactive)
GI50 (SK-MEL-5): > 100 µM (inactive)
GI50 (DMS-114): > 100 µM (inactive)
GI50 (SF-539): > 100 µM (inactive)
GI50 (786-0): > 100 µM (inactive)
GI50 (NCI-H460): > 100 µM (inactive)
GI50 (EKVX): > 100 µM (inactive)
GI50 (HT-29): > 100 µM (inactive)
GI50 (LXFL 529): > 100 µM (inactive)
GI50 (M14): > 100 µM (inactive)
GI50 (SNB-75): > 100 µM (inactive)
GI50 (HCC 2998): > 100 µM (inactive)
GI50 (TK-10): > 100 µM (inactive)
GI50 (SN12C): > 100 µM (inactive)
GI50 (OVCAR-4): > 100 µM (inactive)
GI50 (SF-268): > 100 µM (inactive)
GI50 (SF-295): > 100 µM (inactive)
GI50 (UACC-257): > 100 µM (inactive)
GI50 (KM12): > 100 µM (inactive)
GI50 (SK-OV-3): > 100 µM (inactive)
GI50 (SK-MEL-28): > 100 µM (inactive)
GI50 (IGROV-1): > 100 µM (inactive)
GI50 (HOP-92): > 100 µM (inactive)
GI50 (SK-MEL-2): > 100 µM (inactive)
GI50 (M19-MEL): > 100 µM (inactive)
GI50 (DLD-1): > 100 µM (inactive)
GI50 (HCT-15): > 100 µM
GI50 (ACHN): > 100 µM (inactive)
GI50 (NCI-H522): > 100 µM (inactive)
